Data from patent US10174009B2, “Tricyclic sulphonamide compounds and methods of making and using same” (Zafgen, Inc., priority 2012, dated 2019).

Target: T1, recombinant human MetAP2 (Homo sapiens, UniProt P50579)
T1 construct: made in house; host or cells: Sf9 insect cells
Experiment: Inhibition of recombinant human MetAP2 activity (MAS substrate, amino acid oxidase/Amplex red fluorescence)
Type: biochemical
Conditions: manganese enzyme, 30 minutes at 25° C., pH 7.5, 0.75 mM MAS substrate, 1% DMSO
Procedure: Compounds are tested for their capacity to inhibit recombinant human MetAP2 activity using the following assay.
Human recombinant MetAP2 expressed in Sf9 cells followed by affinity purification and EDTA treatment to remove endogenous active site cation was dialysed against MnCl2 to produce the manganese enzyme used in the assay. The assay was carried out for 30 minutes at 25° C. in 50 mM HEPES buffer containing 100 mM NaCl, pH 7.5 the presence of 0.75 mM Methionine-Alanine-Serine (MAS) substrate and 50 μg/ml amino acid oxidase using a dilution of purified MetAP2 giving >3-fold signal:noise. Cleavage of the substrate by MetAP2 and oxidation of free methionine by amino acid oxidase was detected and quantified using fluorescence generated by Amplex red (10-acetyl-3,7-dihydroxyphenoxazine) in combination with horseradish peroxidase which detects H2O2 released during the oxidation step. The fluorescent signal was detected using a multiwell fluorimeter. Compounds were diluted in DMSO prior to addition to assay buffer, the final DMSO concentration in the assay being 1%.
The IC50 is defined as the concentration at which a given compound achieves 50% inhibition of control. IC50 values are calculated using the XLfit software package (version 2.0.5).

T1 sequence (P50579 whole entry): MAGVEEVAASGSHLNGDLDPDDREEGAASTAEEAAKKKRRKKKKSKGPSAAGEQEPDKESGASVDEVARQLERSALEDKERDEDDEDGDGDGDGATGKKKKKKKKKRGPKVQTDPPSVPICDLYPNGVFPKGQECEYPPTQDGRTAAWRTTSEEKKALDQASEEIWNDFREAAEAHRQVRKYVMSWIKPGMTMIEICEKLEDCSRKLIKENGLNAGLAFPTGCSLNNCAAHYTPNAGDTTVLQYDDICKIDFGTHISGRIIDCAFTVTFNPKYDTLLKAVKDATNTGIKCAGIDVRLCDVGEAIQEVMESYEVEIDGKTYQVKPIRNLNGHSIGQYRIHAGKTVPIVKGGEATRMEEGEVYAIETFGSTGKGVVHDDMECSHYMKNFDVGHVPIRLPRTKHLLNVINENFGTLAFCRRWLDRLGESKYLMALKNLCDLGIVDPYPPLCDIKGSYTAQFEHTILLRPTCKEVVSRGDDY

| IC50 | Structure (SMILES) |
| --- | --- |
| > 50 nM | CCN(CC)CCCc1cc(F)ccc1S(=O)(=O)Nc1cc(F)c2c(c1C(=O)O)OCC1CC21 (racemic) [(1aRS,7bSR)-5-[2-(3-Diethylaminopropyl)-4-fluorobenzenesulfonylamino]-7-fluoro-1,1a,2,7b-tetrahydrocyclopropa[c]chromene-4-carboxylic acid] |
| < 50 nM | CCN1CC[C@@H](Cc2cc(F)ccc2S(=O)(=O)Nc2cc(F)c3c(c2C(=O)O)OCC2CC32)C1 (mixture of isomers) [(1aRS,7bSR)-5-[2-((R)-1-Ethylpyrrolidin-3-ylmethyl)-4-fluorobenzene-sulfonylamino]-7-fluoro-1,1a,2,7b-tetrahydrocyclopropa[c]chromene-4-carboxylic acid] |
| > 50 nM | CCN(CC)C/C=C\c1cc(F)ccc1S(=O)(=O)Nc1c(F)cc2c(c1C(=O)O)OCC1CC21 (racemic) [(1aRS,7bSR)-5-[2-((Z)-3-Diethylaminoprop-1-enyl)-4-fluorobenzene-sulfonylamino]-6-fluoro-1,1a,2,7b-tetrahydrocyclopropa[c]chromene-4-carboxylic acid] |
| < 50 nM | CCN(CC)C/C=C\c1cc(F)ccc1S(=O)(=O)Nc1cc(F)c2c(c1C(=O)O)OCC1CC21 (racemic) [(1aRS,7bSR)-5-[2-((Z)-3-Diethylaminoprop-1-enyl)-4-fluorobenzenesulfonyl-amino]-7-fluoro-1,1a,2,7b-tetrahydrocyclopropa[c]chromene-4-carboxylic acid] |
